Reference: patent US10590454B2, “Methods of preventing and removing trisulfide bonds” (Biogen MA Inc., priority 2011, dated 2020)

Tests used:
[1] = tested on: cysteine degradation (release of hydrogen sulfide); assay: Release of hydrogen sulfide from cysteine-containing medium with inhibitors of cysteine degradation; conditions: cell-culture medium, inhibitor 17.7 mM (1:1 to cysteine), 24 hours
Procedure: In order to test the effect of cysteine degradation inhibitors on release of hydrogen sulfide in cell-culture medium, various inhibitors were added to the medium at the concentration of 17.7 mM, which represents a 1:1 ratio to the concentration of cysteine in the medium. Released hydrogen sulfide concentration was measured after 24 hours of incubation. Briefly, 50 ml of medium was incubated overnight in a closed 100 ml bottle. The headspace was therefore equal to the liquid volume of the container. A Jerome 631-X hydrogen sulfide detector was connected to a short piece of silicon tubing to minimize holdup volume in the instrument. The end of the tubing was inserted into the headspace of the medium-containing bottle, and the Jerome 631-X detector sampled the headspace immediately after opening the bottle.
The effect of pyruvate on release of hydrogen sulfide from cysteine degradation was further tested. The experiments were performed as described above in Example 9. Concentration of released hydrogen sulfide was measured after incubation from solutions containing 17.7 mM cysteine, plus 200 g/L glucose or subgroups of amino acids, in the absence or presence of pyruvate.
The effect of pyruvate on release of hydrogen sulfide from cysteine degradation was also tested in various cell-culture media, including feed liquid, IMDM and DMEM. All cysteine concentrations were normalized to that in the feed liquid. 17.7 mM pyruvate was added to the medium, which represents a 1:1 ratio of cysteine to pyruvate in the medium. The experiments were performed as described above for Example 9. […] Thus, pyruvate can reduce cysteine degradation and H2S release in a variety of compositions and decrease the number of trisulfide bonds.

[2] = Heat induced fragmentation, non-reducing capillary electrophoresis (CE-SDS); type: physicochemical; conditions: 70° C. for 3 minutes with iodoacetamide; compared to mAb-A-LT
Procedure: In these experiments, analysis of IgG1 mAb was performed by denaturing, non-reducing capillary electrophoresis in the presence of sodium dodecyl sulfate using an IgG Purity/Heterogeneity Assay Kit (# A10663) and ProteomeLab PA-800 instrument (Beckman Coulter). Samples (200 μg) were prepared by heating to 70° C. for 3 minutes in the presence of iodoacetamide, 1 mM SDS and a 10 kDa standard essentially as per manufacturer's instructions (Protocol A10424-AC) and separated for 35 min in a bare fused silica capillary with detection at 220 nm. The results, shown in FIGS. 1A and 1B show an increased level of fragmentation following sample preparation for non-reducing electrophoresis. The electrophoretic migration pattern of the single most abundant fragment was consistent with the loss of one light chain (L) from the intact mAb with the simultaneous generation of a species consisting of two heavy chains and one light chain (HHL fragment). This phenomenon was then used to rapidly screen for conditions that influence trisulfide content in IgG1 mAbs. In this screen, non-reducing electrophoresis was used as a rapid assay for detection of trisulfide bonds.

[3] = Differential scanning calorimetry; type: physicochemical; conditions: preparations with low or high H-L trisulfide or treated with 1 mM cysteine; 25° C. to 100° C.
Procedure: The DSC was performed using a MicroCal capillary VP-DSC system (Northampton, Mass., USA) with Origin VPViewer2000 v2.0.64 software. Sample concentration was 0.5 mg/mL in 50 mM sodium phosphate, 100 mM NaCl, pH 6.0. Thermograms were generated by scanning temperature from 25° C. to 100° C. at a rate of 2° C./min.

[4] = Stability of trisulfides in vivo in rats after intraperitoneal injection; conditions: rat, 100 mg/kg intraperitoneally, based on column recoveries
Procedure: The samples were incubated with 100 μL of the resin for 2 h at room temperature with mild agitation. The resin was then washed six times with 0.5 mL of PBS and six times with 0.5 mL of 25 mM sodium phosphate, 100 mM NaCl, pH 5.5, after which the bound antibody was eluted with 25 mM sodium phosphate, pH 2.8, 100-mM NaCl. […] Portions of the serum (750 μL for the 24-h point, and 1050 μL for the 72-h point) were subjected to IgSelect purification using 150 μL of IgSelect (protocol described above).

Molecule | Release of hydrogen sulfide [1] | other results
O=CC(O)CO (racemic) [DL-glyceraldehyde] | functionally stopped release of hydrogen sulfide | 
CCOC(=O)C(C)=O [ethyl pyruvate] | functionally stopped release of hydrogen sulfide | 
O=CC(=O)O [glyoxylic acid] | functionally stopped release of hydrogen sulfide | 
COC(=O)C(C)=O [methyl pyruvate] | functionally stopped release of hydrogen sulfide | 
mAb1: anti-LINGO-1 antibody Li81, human IgG1 produced in CHO cells |  | Sensitivity to heat treatment (fragmentation to HHL species) [2]: increased sensitivity to extreme heat treatment; Transition temperature profiles [3]: no differences in transition temperature profiles detected; Level of mAb1 in the serum ([4]; after 24 h): 850 µg/mL; Level of mAb1 in the serum ([4]; after 72 h): 700 µg/mL
